What follows are molecules tested against T1, MAGL protein (Homo sapiens, UniProt Q99685) (assay: 2-AG assay: MAGL inhibitory activity by hydrolysis of 2-arachidonoylglycerol to arachidonic acid, followed by mass spectrometry). Details: 8 μM 2-arachidonoylglycerol, 15 min preincubation, 30 min reaction at RT, RapidFire MS readout.
T1 sequence (Q99685 1-303): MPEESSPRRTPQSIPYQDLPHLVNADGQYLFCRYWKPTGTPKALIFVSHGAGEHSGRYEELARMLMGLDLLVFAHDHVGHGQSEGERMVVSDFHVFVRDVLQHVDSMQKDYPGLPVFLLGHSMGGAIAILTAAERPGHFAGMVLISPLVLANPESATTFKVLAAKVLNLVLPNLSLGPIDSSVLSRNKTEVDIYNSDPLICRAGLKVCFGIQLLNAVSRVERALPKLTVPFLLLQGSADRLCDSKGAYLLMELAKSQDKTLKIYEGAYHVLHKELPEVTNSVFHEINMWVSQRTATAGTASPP
Assay type: biochemical
Procedure, shortened: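 Activity was measured by RapidFire SPE–triple-quad MS as the ratio of arachidonic acid to d8-arachidonic acid after 2-AG hydrolysis (8 μM substrate, 30 min, RT, acetonitrile quench). Compounds, tested from 12.5 μM down to […], were first preincubated 15 min with MAGL in TRIS/EDTA/Tween-20 buffer containing 2.5% DMSO.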

In order of falling IC50:
1. O=C(N1CC2(CC(c3ncn[nH]3)C2)C1)N1CC2(CC(c3ccc(C(F)(F)F)cc3F)C2)C1 [compound 982]  4970 nM
2. O=C(N1CC(c2cnc(N3CC(C(F)(F)F)C3)nc2)C1)N1CC2(CC(c3nc(C4CC(F)(F)C4)n[nH]3)C2)C1 [compound 978]  2210 nM
3. CS(=O)(=O)c1cc(C(F)(F)F)ccc1CC1CC2(C1)CN(C(=O)N1CC3(CC(c4ncn[nH]4)C3)C1)C2 [compound 633]  1310 nM
4. O=C(N1CCC(NS(=O)(=O)c2ccc(F)cc2)CC1)N1CC2(CC(c3nnc(C4CC4)[nH]3)C2)C1 [compound 249]  1300 nM
5. O=C(N1CC(OCc2ccc(C(F)(F)F)cc2F)C1)N1CC2(CC(c3nnc([C@@H](O)C(F)(F)F)[nH]3)C2)C1 (single isomer, unassigned) [Example 388]  410 nM
6. O=C(N1CC2(CC(Cc3cnc(C(F)(F)F)cn3)C2)C1)N1CC2(CC(c3nc(C4CC(F)(F)C4)n[nH]3)C2)C1 [compound 465]  114 nM
7. O=C(N1CC(N(Cc2ccc(C(F)(F)F)cc2F)C2CC2)C1)N1CC2(CC(c3nnc(C4CC4)[nH]3)C2)C1 [compound 200]  69.7 nM
8. O=C(N1CC2(CCC(Cc3ccc(C(F)(F)F)cn3)CC2)C1)N1CC2(CC(c3nc(C4COC4)n[nH]3)C2)C1 [compound 814]  60.3 nM
9. O=C(N1CC(OCc2cncc(C(F)(F)F)c2)C1)N1CC2(CC(c3nnc(C4CC4)[nH]3)C2)C1 [compound 329]  38.1 nM
10. O=C(N1CC2(CC(Cc3cncc(C(F)(F)F)c3)C2)C1)N1CC2(CC(c3nc(C4COC4)n[nH]3)C2)C1 [compound 748]  37.2 nM
11. CS(=O)(=O)c1cccc(CN2CCC3(CC2)CN(C(=O)N2CC4(CC(c5nnc(C6CC6)[nH]5)C4)C2)C3)c1 [compound 181]  36.2 nM
12. O=C(N1CC2(CC(c3nnc(C4CC4)[nH]3)C2)C1)N1CC2(CCN(Cc3ccc(C(F)(F)F)nn3)C2)C1 [compound 183]  31.3 nM
13. O=C(N1CC2(CC(c3nnc(C4(O)CC4)[nH]3)C2)C1)N1CC2(C1)CN(S(=O)(=O)c1ccccc1C(F)(F)F)C2 [compound 97]  27.9 nM
14. O=C(N1CC2(CC(CNC3(C(F)(F)F)CC3)C2)C1)N1CC2(CC(c3nnc(C4(O)CC4)[nH]3)C2)C1 [compound 55]  22 nM
15. O=C(N1CC(CNS(=O)(=O)c2cccc(C(F)(F)F)c2)C1)N1CC2(CC(c3nnc(C4CC4)[nH]3)C2)C1 [compound 208]  21.6 nM
16. O=C(N1CC(OCc2ccc(C(F)(F)F)cc2F)C1)N1CC2(CC(c3nnc([C@H](O)C(F)(F)F)[nH]3)C2)C1 (single isomer, unassigned) [Example 389]  15.2 nM
17. O=C(N1CC(OCc2ccc(C(F)(F)F)cc2F)C1)N1CC2(CC(c3nnc(C4(O)CC4)[nH]3)C2)C1 [compound 324]  14.3 nM
18. CC(C)(O)Cn1nc(C2CCN(C(=O)N3CC4(CC(c5nnc(C6CC6)[nH]5)C4)C3)CC2)c2cc(Cl)ccc21 [Example 416, [4-[5-chloro-1-(2-hydroxy-2-methyl-propyl)indazol-3-yl]piperidino]-[6-(5-cyclopropyl-4H-1,2,4-triazol-3-yl)-2-azaspiro[3.3]heptan-2-yl]methanone]  13.3 nM
19. CS(=O)(=O)c1cnn(-c2ccc(C3CN(C(=O)N4CC5(CC(c6nnc(C7CC7)[nH]6)C5)C4)C3)cc2)c1 [Example 500, [6-(5-cyclopropyl-4H-1,2,4-triazol-3-yl)-2-azaspiro[3.3]heptan-2-yl]-[3-[4-(4-mesylpyrazol-1-yl)phenyl]azetidin-1-yl]methanone]  9.48 nM
20. COC(=O)c1ccccc1CN1CC2(C1)CN(C(=O)N1CC3(CC(c4nnc(C5CC5)[nH]4)C3)C1)C2 [Example 171, methyl 2-[[2-[6-(5-cyclopropyl-4H-1,2,4-triazol-3-yl)-2-azaspiro[3.3]heptane-2-carbonyl]-2,6-diazaspiro[3.3]heptan-6-yl]methyl]benzoate]  9.21 nM
21. CS(=O)(=O)c1cc(F)ccc1OC1CCC2(CC1)CN(C(=O)N1CC3(CC(c4nnc(C5CC5)[nH]4)C3)C1)C2 [compound 355]  8.86 nM
22. O=C(N1CC2(CC(c3nc(C4CC4)n[nH]3)C2)C1)N1CC2(CN(Cc3cc(C(F)(F)F)no3)C2)C1 [compound 672]  8.31 nM
23. CS(=O)(=O)C1(c2ccc(C3CN(C(=O)N4CC5(CC(c6nc(C7CC7)n[nH]6)C5)C4)C3)cc2)CC1 [compound 776]  5.9 nM
24. O=C(N1CC2(CC(Oc3cnc(C(F)(F)F)cn3)C2)C1)N1CC2(CC(c3nnc(C4CC4)[nH]3)C2)C1 [compound 75]  5.55 nM
25. N#Cc1cc(F)ccc1C12CC(C3CN(C(=O)N4CC5(CC(c6nc(C7(O)CC7)n[nH]6)C5)C4)C3)(C1)C2 [compound 509]  5.16 nM
26. CS(=O)(=O)c1ccc(CC2CC3(C2)CN(C(=O)N2CC4(CC(c5nnc(C6(O)CC6)[nH]5)C4)C2)C3)cc1 [compound 13]  4.72 nM
27. O=C(N1CC2(CC(Cc3ccc(S(=O)(=O)C(F)(F)F)cc3)C2)C1)N1CC2(CC(c3nc(C4CC(F)(F)C4)n[nH]3)C2)C1 [compound 526]  4.6 nM
28. O=C(N1CC2(CC(c3nnc(C4CC4)[nH]3)C2)C1)N1CC2(CN(Cc3ccc(F)cc3F)C2)C1 [compound 156]  4.08 nM
29. CS(=N)(=O)c1ccc(CC2CC3(C2)CN(C(=O)N2CC4(CC(c5nnc(C6CC6)[nH]5)C4)C2)C3)cc1 (stereo not shown) [compound 123]  3.98 nM
30. O=C(N1CC2(CC(c3nnc(C4CC4)[nH]3)C2)C1)N1CC2(C1)CN(S(=O)(=O)c1cc(F)cc(C(F)(F)F)c1)C2 [compound 101]  3.7 nM
31. O=C(N1CC(c2ccc(NC3(C(F)(F)F)CC3)nc2)C1)N1CC2(CC(c3nnc(C4(O)CC4)[nH]3)C2)C1 [compound 272]  3.67 nM
32. O=C(N1CC2(CC(Cn3cnc(C(F)(F)F)c3)C2)C1)N1CC2(CC(c3nnc(C4CC4)[nH]3)C2)C1 [compound 63]  3.59 nM
33. Cc1c(C(F)(F)F)n[nH]c1CN1CC2(C1)CN(C(=O)N1CC3(CC(c4nnc(C5CC5)[nH]4)C3)C1)C2 [compound 874]  2.8 nM
34. N=S(=O)(c1ccc(C2CN(C(=O)N3CC4(CC(c5nc(C6(O)CC6)n[nH]5)C4)C3)C2)cc1)C(F)(F)F (stereo not shown) [compound 697]  2.65 nM
35. O=C(N1CC2(CC(c3nc(C4CC4)n[nH]3)C2)C1)N1CC2(CCN(Cc3ccc(S(=O)(=O)C(F)(F)F)cc3)C2)C1 [compound 703]  2.63 nM
36. O=C(N1CC2(CC(Cc3ccc(F)cc3F)C2)C1)N1CC2(CC(c3nc(C4COC4)n[nH]3)C2)C1 [compound 835]  2.37 nM
37. N#Cc1cc(C(F)(F)F)ncc1CC1CC2(C1)CN(C(=O)N1CC3(CC(c4nnc(C5CC5)[nH]4)C3)C1)C2 [compound 843]  1.07 nM
38. O=C(N1CC2(CC(Cc3noc(C(F)(F)F)n3)C2)C1)N1CC2(CC(c3nc(C4CC4)n[nH]3)C2)C1 [compound 794]  1.03 nM
39. O=C(N1CC(c2ccc(NCC3(C(F)(F)F)CC3)cn2)C1)N1CC2(CC(c3nnc(C4CC4)[nH]3)C2)C1 [compound 256]  0.78 nM
40. Cc1cc(C2CC2)n(CC2CC3(C2)CN(C(=O)N2CC4(CC(c5nc(C6CC6)n[nH]5)C4)C2)C3)n1 [compound 846]  0.78 nM
41. O=C(N1CC2(CC(Cc3nccc(C(F)(F)F)n3)C2)C1)N1CC2(CC(c3nc(C4CC4)n[nH]3)C2)C1 [compound 403]  0.75 nM
42. O=C(N1CC2(CC(Cc3ccc(S(=O)(=O)C(F)(F)F)cc3)C2)C1)N1CC2(CC(c3nc(C4COC4)n[nH]3)C2)C1 [compound 755]  0.61 nM
43. N=S(=O)(c1ccc(CC2CC3(C2)CN(C(=O)N2CC4(CC(c5nc(C6(O)CC6)n[nH]5)C4)C2)C3)cc1)C(F)(F)F (stereo not shown) [compound 558]  0.6 nM
44. O=C(N1CC(c2ccc(N3CCC4(C3)CC4(F)F)nc2)C1)N1CC2(CC(c3nnc(C4CC4)[nH]3)C2)C1 (stereo not shown) [compound 289]  0.45 nM
45. CS(=O)(=O)c1cc(C(F)(F)F)ccc1CC1CC2(C1)CN(C(=O)N1CC3(CC(c4nnc(C5(O)CC5)[nH]4)C3)C1)C2 [compound 40]  0.4 nM
46. Cc1cc(C(F)F)n(CC2CC3(C2)CN(C(=O)N2CC4(CC(c5nc(C6CC6)n[nH]5)C4)C2)C3)n1 [compound 883]  0.39 nM
47. Cn1cc(CC2CC3(C2)CN(C(=O)N2CC4(CC(c5nc(C6CC6)n[nH]5)C4)C2)C3)c(C(F)(F)F)n1 [compound 770]  0.23 nM
48. Cn1cc(-c2ccc(C3CN(C(=O)N4CC5(CC(c6nc(C7(O)CC7)n[nH]6)C5)C4)C3)cc2)c(C(F)(F)F)n1 [compound 823]  0.21 nM
49. CS(=O)(=O)c1cc(Cl)ccc1C12CC(C3CN(C(=O)N4CC5(CC(c6nnc(C7CC7)[nH]6)C5)C4)C3)(C1)C2 [compound 562]  0.2 nM
50. O=C(N1CC2(CCC(Cc3ccc(C(F)(F)F)cn3)C2)C1)N1CC2(CC(c3nnc(C4CC4)[nH]3)C2)C1 (stereo not shown) [compound 50]  0.19 nM
51. N=[S@](=O)(c1ccc(CC2CC3(C2)CN(C(=O)N2CC4(CC(c5nnc(C6CC6)[nH]5)C4)C2)C3)cc1)C(F)(F)F (single isomer, unassigned) [compound 129]  0.1 nM
52. COc1nc(C(F)(F)F)cnc1CC1CC2(C1)CN(C(=O)N1CC3(CC(c4nc(C5CC5)n[nH]4)C3)C1)C2 [compound 943]  0.09 nM
53. O=C(N1CC2(CC(Cc3cc(C(F)(F)F)n(CC(F)(F)F)n3)C2)C1)N1CC2(CC(c3nc(C4CC4)n[nH]3)C2)C1 [compound 793]  0.07 nM
54. O=C(N1CC2(CC(Cc3cc(C4(C(F)(F)F)CC4)[nH]n3)C2)C1)N1CC2(CC(c3nc(C4CC4)n[nH]3)C2)C1 [compound 945]  0.07 nM
55. O=C(N1CC(C23CC(c4ccc(S(=O)(=O)C(F)(F)F)cc4)(C2)C3)C1)N1CC2(CC(c3nc(C4CC4)n[nH]3)C2)C1 [compound 540]  0.05 nM
